Measured values reported in patent US9139581B2 (PORTOLA PHARMACEUTICALS, INC., priority 2008, dated 2015).
pIC50: −log10 of the molar value.

Molecular target: T1, full length active recombinant SYK enzyme (Homo sapiens, UniProt P43405)
T1 construct: full length active recombinant SYK enzyme (Millipore, Calif.); purchased Millipore
Test: Inhibition of Syk tyrosine phosphorylation activity (LANCE TR-FRET)
Type: biochemical
Details: Table 3; 1 nM SYK, 100 μM ATP; read-out: Syk IC50 code
Outline: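 The reaction is quenched with buffer holding Eu-anti-phosphotyrosine and streptavidin-APC, and detection runs 1 hr at room temperature. TR-FRET is read and IC50s come from non-linear regression.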

**Q.** With `CC(=O)N1CCN(c2ccc(Nc3nc(Nc4cccc(S(N)(=O)=O)c4)c4cc[nH]c4n3)cc2)CC1` [Example 96A, 3-(2-(4-(4-acetylpiperazin-1-yl)phenylamino)-7H-pyrrolo[2,3-d]pyrimidin-4-ylamino)benzenesulfonamide] as the molecule, how does the pIC50 read?
**A.** 6.00 to 7.00

**Q.** How did the pIC50 turn out when `NS(=O)(=O)c1cccc(Nc2nc(Nc3ccc(N4CCNCC4)cc3)nc3[nH]ccc23)c1` [Example 96B, 3-(2-(4-(piperazin-1-yl)phenylamino)-7H-pyrrolo[2,3-d]pyrimidin-4-ylamino)benzenesulfonamide] was run?
**A.** 7.00 to 8.00

**Q.** How did the pIC50 turn out when `CC(=O)N(C)c1ccc(Nc2nc(Nc3cccc(CN)c3)c3cc[nH]c3n2)cc1` [Example 97, N-(4-(4-(3-(aminomethyl)phenylamino)-7H-pyrrolo[2,3-d]pyrimidin-2-ylamino)phenyl)-N-methylacetamide] was run?
**A.** 6.00 to 7.00

**Q.** With `CC(=O)N1CCN(c2ccc(Nc3nc(N[C@H](C)CO)c4cc[nH]c4n3)cc2)CC1` [Example 98A, (R)-1-(4-(4-(4-(1-hydroxypropan-2-ylamino)-7H-pyrrolo[2,3-d]pyrimidin-2-ylamino)phenyl)piperazin-1-yl)ethanone] as the molecule, how does the pIC50 read?
**A.** 6.00 to 7.00

**Q.** How did the pIC50 turn out when `C[C@H](CO)Nc1nc(Nc2ccc(N3CCNCC3)cc2)nc2[nH]ccc12` [Example 98B, (R)-2-(2-(4-(piperazin-1-yl)phenylamino)-7H-pyrrolo[2,3-d]pyrimidin-4-ylamino)propan-1-ol] was run?
**A.** 6.00 to 7.00

**Q.** How did the pIC50 turn out when `CC(=O)N1CCN(c2ccc(Nc3nc(N[C@@H](C)CO)c4cc[nH]c4n3)cc2)CC1` [Example 99A, (S)-1-(4-(4-(4-(1-hydroxypropan-2-ylamino)-7H-pyrrolo[2,3-d]pyrimidin-2-ylamino)phenyl)piperazin-1-yl)ethanone] was run?
**A.** 6.00 to 7.00

**Q.** How did the pIC50 turn out when `C[C@@H](CO)Nc1nc(Nc2ccc(N3CCNCC3)cc2)nc2[nH]ccc12` [Example 99B, (S)-2-(2-(4-(piperazin-1-yl)phenylamino)-7H-pyrrolo[2,3-d]pyrimidin-4-ylamino)propan-1-ol] was run?
**A.** 6.00 to 7.00

**Q.** How did the pIC50 turn out when `CC(=O)N1CCN(c2ccc(Nc3nc(NC4CCS(=O)(=O)C4)c4cc[nH]c4n3)cc2)CC1` (stereo not drawn) [Example 100A, 1-(4-(4-(4-(1,1-dioxy-tetrahydrothiophen-3-ylamino)-7H-pyrrolo[2,3-d]pyrimidin-2-ylamino)phenyl)piperazin-1-yl)ethanone] was run?
**A.** < 6.00

**Q.** With `O=S1(=O)CCC(Nc2nc(Nc3ccc(N4CCNCC4)cc3)nc3[nH]ccc23)C1` (stereo not drawn) [Example 100B, N2-(4-(piperazin-1-yl)phenyl)-N4-(1,1-dioxy-tetrahydrothiophen-3-yl)-7H-pyrrolo[2,3-d]pyrimidine-2,4-diamine] as the molecule, how does the pIC50 read?
**A.** < 6.00

**Q.** How did the pIC50 turn out when `NC(=O)c1ccc(Nc2nc(NC3CC3)c3c(-c4ccncc4)c[nH]c3n2)cc1` [Example 101, 4-(4-(cyclopropylamino)-5-(pyridin-4-yl)-7H-pyrrolo[2,3-d]pyrimidin-2-ylamino)benzamide] was run?
**A.** 7.00 to 8.00

**Q.** `Nc1nc(Nc2ccc(C(=O)O)cc2)nc2[nH]cc(-c3ccncc3)c12` [Example 102, 4-(4-amino-5-(pyridin-4-yl)-7H-pyrrolo[2,3-d]pyrimidin-2-ylamino)benzoic acid] was tested. Which pIC50 did it give?
**A.** < 6.00

**Q.** How did the pIC50 turn out when `N#Cc1c[nH]c2nc(Nc3ccc4c(c3)CCC(=O)N4)nc(NC3CC3)c12` [Example 103, 4-(cyclopropylamino)-2-(2-oxo-1,2,3,4-tetrahydroquinolin-6-ylamino)-7H-pyrrolo[2,3-d]pyrimidine-5-carbonitrile] was run?
**A.** 8.00 to 9.00

**Q.** With `N#Cc1c[nH]c2nc(Nc3ccc(C(N)=O)cc3)nc(NC3CC3)c12` [Example 104, 4-(5-cyano-4-(cyclopropylamino)-7H-pyrrolo[2,3-d]pyrimidin-2-ylamino)benzamide] as the molecule, how does the pIC50 read?
**A.** 7.00 to 8.00

**Q.** `CC(=O)N(C)c1ccc(Nc2nc(NC3CC3)c3c(C#N)c[nH]c3n2)cc1` [Example 105, N-(4-(5-cyano-4-(cyclopropylamino)-7H-pyrrolo[2,3-d]pyrimidin-2-ylamino)phenyl)-N-methylacetamide] was tested. Which pIC50 did it give?
**A.** 7.00 to 8.00

**Q.** With `N#Cc1c[nH]c2nc(Nc3ccc(S(N)(=O)=O)cc3)nc(NC3CC3)c12` [Example 106, 4-(5-cyano-4-(cyclopropylamino)-7H-pyrrolo[2,3-d]pyrimidin-2-ylamino)benzenesulfonamide] as the molecule, how does the pIC50 read?
**A.** 8.00 to 9.00
